Data: ChEMBL document CHEMBL1139133, “A spectroscopic and molecular modeling study of sinomenine binding to transferrin” (Bioorg Med Chem Lett, 2007)

Species: Homo sapiens
Experiment: Binding affinity to human serum transferrin

COC1=C[C@@H]2[C@@H]3Cc4ccc(OC)c(O)c4[C@]2(CCN3C)CC1=O
Ka: 0.68 10^3/M
